From paper PMC8811960, “A Novel 2-Carbon-Linked Dimeric Artemisinin With Potent Antileukemic Activity and Favorable Pharmacology” (Frontiers in Oncology, 2022)
Where a name gives a salt, the structure may show the parent alone. Read-outs that look alike come from different tables or passages of the source.

How the values were obtained:
[1] = test system: MOLM14, MV4;11, and HL60 human AML cells; set-up: method as in PMID 33560385; settings: ART631 200 nM, VEN 50 nM, SOR 5 µM; MOLM14, MV4;11, HL60; cited from earlier work
KG1a = test: alamarBlue growth inhibition, KG1a; type: cell-based; settings: Homo sapiens, KG-1a, 48h, mean of 2 independent assays ± SD
Protocol: (§1) Cytotoxicity was assessed using alamarBlue assays (Life Technologies, Grand Island, NY) following manufacturer’s guidelines. Cell death was verified by Annexin V/7-aminoactinomycin D (7AAD) staining (BioLegend, San Diego, CA) per manufacturer’s guidelines.

[2] = as previously reported; cited from earlier work
U937 = test: alamarBlue growth inhibition, U937; type: cell-based; settings: Homo sapiens, U-937, U937, 48h, mean of 2 independent assays ± SD
Protocol: as §1

TF1 = test: alamarBlue growth inhibition, TF1; type: cell-based; settings: Homo sapiens, TF-1, TF1, 48h, mean of 2 independent assays ± SD
Protocol: as §1

ML2 = test: alamarBlue growth inhibition, ML2; type: cell-based; settings: Homo sapiens, ML-2, ML2, 48h, mean of 2 independent assays ± SD
Protocol: as §1

HEL = test: alamarBlue growth inhibition, HEL; type: cell-based; settings: Homo sapiens, 48h, mean of 2 independent assays ± SD
Protocol: as §1

THP1 = test: alamarBlue growth inhibition, THP1; type: cell-based; settings: Homo sapiens, THP-1, THP1, 48h, mean of 2 independent assays ± SD
Protocol: as §1

23 leukemia cell lines = settings: against 23 leukemia cell lines; cited from earlier work
K562 = test: alamarBlue growth inhibition, K562; type: cell-based; settings: Homo sapiens, K562, 48h, mean of 2 independent assays ± SD
Protocol: as §1

[3] = x5; cited from earlier work
HL60 = test: alamarBlue growth inhibition, HL60; type: cell-based; settings: Homo sapiens, HL-60, HL60, 48h, mean of 2 independent assays ± SD
Protocol: as §1

10 human AML cell lines = test: alamarBlue growth inhibition, panel of 10 human AML cell lines; type: cell-based; settings: for IC50: read-out: IC50 range; for number of human AML cell lines whose growth was inhibited: of 10 human AML cell lines tested
Protocol: as §1
Cell lines with adverse risk cytogenetic and molecular features, e.g. MLL rearrangements (ML2, MOLM14, MV4;11, THP1), FLT3-ITD (MOLM14, MV4;11), TP53 mutations (KG1a, ML2, THP1, U937), and NRAS/KRAS mutations (ML2, THP1), were among those exquisitely sensitive to ART631, with IC50s < 50 nM. The K562 cell line was the only exception, as it was resistant to all 3 of these ARTs. Based on this in vitro activity data combined with the drug stability data described below, ART631 was prioritized over ART576 for further in vitro and in vivo antileukemic efficacy experiments here ( Table 2 ).

MV4;11 = test: alamarBlue growth inhibition, MV4;11; type: cell-based; settings: Homo sapiens, MV4;11, 48h, mean of 2 independent assays ± SD
Protocol: as §1

DDIT3 = test: qRT-PCR for DDIT3 mRNA; type: cell-based, human; settings: MOLM14, 18h, ART631 200 nM, ART838 200 nM, AS 10 uM, similar results in MV4;11 and ML2
Protocol: Cells were pre-treated with […] ROS detection reagent 5-(and 6-)-chloromethyl-2’,7’-dichlorodihydrofluorescein diacetate (CM-H2DCFDA, Life Technologies) for 30 min, followed by the iron chelator deferoxamine mesylate (DFO; 11 mM) for 60 min. Cells were then treated with ART631 (200 nM) or DMSO control for 18h, with subsequent analysis by flow cytometry. Western blotting and quantitative reverse transcription PCR (qRT-PCR) to assess for molecular markers of ROS-mediated apoptosis were performed as previously described ([20]).
(§2) Figure 4 ART631 elevated ROS and CHOP levels and reduced MCL1 expression in MOLM14 AML cells. (A) MOLM14 AML cells were pre-treated with ROS detection reagent CM-H2DCFDA (5 mM) for 30 min, pre-treated with deferoxamine mesylate (DFO; 11 mM) for 60 min, and then treated with ART631 (200 nM) or DMSO control for 18h. They were then analyzed by flow cytometry. Graph represents %CM-H2DCFDA fluorescence compared to vehicle (DMSO) control treated cells. Error bars represent SD from 3 independent experiments. (B) MOLM14 AML cells were treated for 18h with vehicle, AS (10 uM), ART838 (200 nM), ART631 (200 nM), cytarabine (AraC; 150 nM), or SOR (5 uM). Protein was isolated and western blotted for MCL1, BCL2, CHOP, and β-actin. (C) MOLM14 cells were treated as in (B) for 18h, total RNA isolated, cDNA synthesized, and SYBR Green qRT-PCR performed in triplicates. Ct values were normalized to housekeeping gene GAPDH and fold change shown relative to vehicle (DMSO) control. Error bars represent SD from 3 independent experiments done in triplicate.

MOLM14 = test: alamarBlue growth inhibition, MOLM14; type: cell-based; settings: Homo sapiens
Protocol: as §1
In this experiment, provided to show the entire concentration:response range, MOLM14 AML cells were cultured with a range of concentrations of artesunate (AS), ART838, ART631, and ART576 for 48h. Graph indicates growth inhibition relative to vehicle (DMSO)-treated controls by alamarBlue absorbance assays. Data points and error bars represent mean and SD of 3 independent experiments done in triplicate.

AML45 PDX = test system: AML45 PDX; set-up: method as in PMID 33560385; settings: monotherapy; cited from earlier work
[4] = test system: MOLM14, MV4;11, and HL60 human AML cells; test: Annexin V/7-AAD cell viability and apoptosis; type: cell-based; settings: 30-45 min pre-incubation with 10 nM QVD
Protocol: as §1
MOLM14, MV4;11, and HL60 human AML cells were assessed for cell viability and caspase-dependent apoptosis following treatment with ART631 (200 nM), VEN (50 nM), SOR (5 µM), and combinations thereof.
Figure 3 ART631-based combination treatments reduced cell viability in AML cell lines. MOLM14, MV4;11, and HL60 AML cells were each treated for 18h with vehicle (DMSO) control, ART631 alone (200 nM), VEN alone (50 nM), SOR alone (5 uM), and 2- and 3-drug combinations, all with and without a 30-45 min pre-incubation with 10 nM pan-caspase inhibitor QVD-OPh (QVD). Treated cells were stained with 2.5 ug/mL 7-aminoactinomycin D (7-AAD) and 0.5 ug/mL allophycocyanin (APC)-conjugated Annexin V in Annexin V binding buffer and analyzed by flow cytometry. Graphs indicate % cell viability based on Annexin V/7-AAD dual staining. For MOLM14 and MV4;11, means and SDs shown are based on 3 independent experiments. HL60 cell data is from one experiment done in triplicate.

[5] = Phase I microsomal stability, human liver microsomes; type: in vitro ADME
Protocol: (§3) The metabolic stability of ART631 was assessed in human and mouse plasma and liver microsomes (LM). For phase I microsomal stability assays, analogs (10 µM in <1% acetonitrile) were incubated in PBS containing liver microsomes, with or without cofactors ([22]). Microsomal controls (without cofactors) were used to determine non-enzymatic degradation. All experiments were incubated at 37°C for 1h and performed in duplicate. Reactions were stopped with acetonitrile and analyzed as described below.
(§4) ART631 was extracted from 25 µL plasma or microsomal solutions with 100 µL acetonitrile containing artemisinin (i.e. the natural product) as internal standard. […] Mobile phase A was ammonium acetate (2mM) containing 0.1% formic acid, and mobile phase B was acetonitrile containing 0.1% formic acid. The gradient started with mobile phase B and was held at 40% for 0.5 minutes with a flow rate of 0.4 mL/min, then increased to 100% over 1.5 minutes and held for 2.0 minutes, and finally returned back to 40% mobile phase B and allowed to equilibrate for 2.0 minutes. An AB Sciex 5500 triple quadrupole mass spectrometer operated in positive electrospray ionization mode was used for the detection of ART631. For stability studies, the ratio of ART631 to the internal standard, artemisinin, was assessed. Calibration curves for ART631 were computed using the ratio of the peak area to that of the internal standard by using a quadratic equation with a 1/x^2 weighting function over the range of 8-1585 nM with dilutions of up to 1:10 (v/v).

[6] = Phase I microsomal stability, mouse liver microsomes; type: in vitro ADME
Protocol: as §3, §4

[7] = Stability in mouse plasma (EDTA); type: in vitro ADME; settings: 10 µM, 37°C, 1h
Protocol: as §3
as §4, with “Calibration curves for ART631 were computed using the ratio of the peak area to that of the internal standard by using a quadratic equation with a 1/x^2 weighting function over the range of 8-1585 nM with dilutions of up to 1:10 (v/v).” left out

[8] = Stability in human plasma (EDTA); type: in vitro ADME; settings: 10 µM, 37°C, 1h
Protocol: as §3
as §4, with “Calibration curves for ART631 were computed using the ratio of the peak area to that of the internal standard by using a quadratic equation with a 1/x^2 weighting function over the range of 8-1585 nM with dilutions of up to 1:10 (v/v).” left out

Stability in plasma = type: in vitro ADME, human and mouse; settings: species not given
Protocol: as §3
We compared the in vitro stability of ART576 and ART631 ( Table 3 ). ART576 was stable in plasma (<10% degradation), but unstable with degradation of >70% in human liver microsomes with co-factors and >90% in mouse liver microsomes with co-factors ( Table 3 ).

MOLM14 cells = test: Total cellular ROS (CM-H2DCFDA flow cytometry); type: cell-based, human; settings: MOLM14, DFO 11 uM, 60 min pre-treatment
Protocol: […] Cells were then treated with ART631 (200 nM) or DMSO control for 18h, with subsequent analysis by flow cytometry. Western blotting and quantitative reverse transcription PCR (qRT-PCR) to assess for molecular markers of ROS-mediated apoptosis were performed as previously described ([20]).
as §2, with “(A) MOLM14 AML cells were pre-treated with ROS detection reagent CM-H2DCFDA (5 mM) for 30 min, pre-treated with deferoxamine mesylate (DFO; 11 mM) for 60 min, and then treated with ART631 (200 nM) or DMSO control for 18h.” left out

[9] = MOLM-14, MOLM14, 48h, alamarBlue, mean of 2 independent assays ± SD, read-out: IC50
[10] = 10 µM, 37°C, 1h, with cofactors
[11] = 10 µM, 37°C, 1h, without cofactors
[12] = NADPH-dependent phase I metabolism

Compound | IC50 (KG1a) [nM] | IC50 (U937) [nM] | IC50 (TF1) [nM] | IC50 (ML2) [nM] | IC50 (HEL) [nM] | IC50 (THP1) [nM] | IC50 (K562) [nM] | IC50 (HL60) [nM] | IC50 (MV4;11) [nM] | also measured
CC1(C)CCC(CN2CCN(c3ccc(C(=O)NS(=O)(=O)c4ccc(NCC5CCOCC5)c([N+](=O)[O-])c4)c(Oc4cnc5[nH]ccc5c4)c3)CC2)=C(c2ccc(Cl)cc2)C1 [VEN, venetoclax] | – | – | – | – | – | – | – | – | – | cell death as single agents [1]: less than 15%
CNC(=O)c1cc(Oc2ccc(NC(=O)Nc3ccc(Cl)c(C(F)(F)F)c3)cc2)ccn1 [SOR, sorafenib] | – | – | – | – | – | – | – | – | – | cell death as single agents [1]: less than 15%
C[C@@H]1CCC2[C@@H](C)[C@@H](CC(COP(=O)(Oc3ccccc3)Oc3ccccc3)C[C@H]3O[C@@H]4O[C@@]5(C)CCC6[C@H](C)CCC([C@H]3C)[C@]64OO5)O[C@@H]3O[C@@]4(C)CCC1[C@@]23OO4 (some centres unmarked) [ART838, reference compound] | 112 ± 7 | 22 ± 3 | 36 ± 3 | 40 ± 5 | 72 ± 6 | 45 ± 3 | > 1000 | 45 ± 3 | 28 ± 1 | degradation (stability) [2]: ≤ 20%; fold more potent than artesunate (AS) (23 leukemia cell lines): 88 fold; multiple day MTD regimen [3]: 50 mg/kg/day; IC50 (10 human AML cell lines; Homo sapiens): 22 to 112 nM; number of human AML cell lines whose growth was inhibited (10 human AML cell lines): 9; DDIT3 mRNA (DDIT3): increased; IC50 (MOLM14; MOLM-14, 48 h): 28 ± 3 nM; survival versus vehicle (AML45 PDX): did not reach statistical significance
C[C@H]1[C@H](OC(=O)CCC(=O)O)O[C@@H]2O[C@@]3(C)CC[C@H]4[C@H](C)CC[C@@H]1[C@@]24OO3 [AS, artesunate, reference compound] | 2600 ± 458 | 521 ± 96 | 1720 ± 302 | 1580 ± 94 | 1110 ± 93 | > 10000 | > 10000 | 1060 ± 83 | 610 ± 30 | DDIT3 mRNA (DDIT3): increased; IC50 (MOLM14; [9]): 890 ± 99 nM
CC(C)[C@H](NC(=O)c1ccc2ccccc2n1)C(=O)N[C@@H](CC(=O)O)C(=O)COc1c(F)cccc1F [QVD-OPh] | – | – | – | – | – | – | – | – | – | effect of pre-treatment on apoptosis and cell death for all drugs and combinations [4]: almost fully inhibited
C[C@@H]1CCC2[C@@H](C)[C@@H](C(=O)C[C@H]3O[C@@H]4O[C@@]5(C)CCC6[C@H](C)CCC([C@H]3C)[C@]64OO5)O[C@@H]3O[C@@]4(C)CCC1[C@@]23OO4 (some centres unmarked) [ART576] | 64 ± 4 | 23 ± 1 | 49 ± 12 | 105 ± 12 | 80 ± 19 | > 1000 | > 1000 | 72 ± 18 | 38 ± 10 | percentage remaining, Phase I Metabolism HLM NADPH(+) [5, 10]: 26%; percentage remaining, Phase I Metabolism HLM NADPH(-) [5, 11]: 89%; degradation in human liver microsomes with co-factors [5, 12]: > 70%; percentage remaining, Phase I Metabolism MLM NADPH(+) [6, 10]: 7%; percentage remaining, Phase I Metabolism MLM NADPH(-) [6, 11]: 96%; degradation in mouse liver microsomes with co-factors [6, 12]: > 90%; percentage remaining, Plasma (EDTA) Mouse [7]: 101%; percentage remaining, Plasma (EDTA) Human [8]: 91%; number of human AML cell lines whose growth was inhibited (10 human AML cell lines): 8; IC50 (10 human AML cell lines; range over the inhibited cell lines of 10 human AML cell lines): 23 to 105 nM; IC50 (MOLM14; [9]): 43 ± 7 nM; degradation in plasma (Stability in plasma): < 10%
CC(=O)N(O)CCCCCNC(=O)CCC(=O)N(O)CCCCCNC(=O)CCC(=O)N(O)CCCCCN [deferoxamine mesylate, reference compound] | – | – | – | – | – | – | – | – | – | effect of pre-treatment on ROS generation by ART631 (MOLM14 cells): diminished
